Reference: patent publication US20220267271A1, “WNT ACTIVATORS AND METHODS OF USE” (MAYO FOUNDATION FOR MEDICAL EDUCATION AND RESEARCH, priority 2019, published 2022)

Key:
β-catenin = assay: Cytosolic free β-catenin level in HEK293 cells; type: cell-based
Excerpt: Niclosamide (5-chloro-N-[2-chloro-4-nitrophenyl]-2-hydroxy benzamide), an FDA approved antihelminthic drug, suppresses Wnt/β-catenin signaling by inducing Wnt co-receptor LRP6 degradation in cancer cells. […] CI-994 is an orally active class I histone deacetylase (HDAC) inhibitor [37]. CI-994 increased Wnt reporter activity (FIG. 2B) and cytosolic free β-catenin level in HEK293 cells.

LRP6 = assay: HA-LRP6 expression in HT1080 cells stably transduced with HA-LRP6, Western blot; type: cell-based, human; settings: HT1080 cells stably transduced with HA-LRP6, 24 h
Method: (A) structures of niciosamide and CI-994; (B) HEK293 cells were transfected with Super8XTOPFlash and β galactosidase vectors along with Wnt3A or control vector. After 24 hours incubation, cells were treated with CI-994 at the indicated concentration for 24 hr. The luciferase activity was then measured and normalized to the activity of the β-galactosidase. (C) HT1080 cells stably transduced LRP6 with HA tag were treated with niciosamide and CI-994 at the indicated concentrations for 24 h. The levels of HA-LRP6 were examined by Western blot with anti-HA antibody. (D) Western blots showing the depletion of LRP6 after 2 days of transiently transfection of 50 nM LRP6 siRNA in HEK293 cells. […] The luciferase activity was then measured and normalized to β-galactosidase activity. […]
(A) HT1080 cells stably transduced with human LRP6 with HA tag were treated with niciosamide (1 μM) and other compounds as noted (1 μM) for 24 hr. […] The luciferase activity was then measured and normalized to β-galactosidase activity. […]
Western blotting: Cells in 6-well plates were lysed in 0.5 ml of lysis buffer (phosphate-buffered saline containing 1% Triton X-100, 1× Proteinase inhibitor cocktail Complete, and 1 mM PMSF) at 4° C. for 15 min. Equal quantities of protein were subjected to SDS-PAGE under reducing conditions. […]

GSK3β = GSK3β phosphorylation (Ser9) in N2a cells by Western blotting; type: cell-based; settings: 0.8 μM and 1.6 μM, 24 h
Method: N2a cells were treated with 1011 at the indicated concentrations for 24 h. (A) the levels of β-catenin, GSK3β and GSK3β phosphorylation (Ser9) were examined by Western blotting. (B) the intensity of the GSK3β phosphorylation bands were quantified and normalized to the corresponding signal for total GSK3β. The results represented in the histograms are shown as the mean±SD and are the average of 3 independent experiments. *P<0.05, **P<0.01 versus corresponding control value.
Western blotting: Cells in 6-well plates were lysed in 0.5 ml of lysis buffer (phosphate-buffered saline containing 1% Triton X-100, 1× Proteinase inhibitor cocktail Complete, and 1 mM PMSF) at 4° C. for 15 min. Equal quantities of protein were subjected to SDS-PAGE under reducing conditions. Following transfer to immobilon-P transfer membrane, successive incubations with a primary antibody, and a horseradish peroxidase-conjugated secondary antibody or IRDye® 680RD goat anti-rabbit/mouse secondary antibodies were carried out for 60-120 min at room temperature. The immunoreactive proteins were then detected using the ECL system or the Odyssey infrared imaging system (LI-COR). Films showing immunoreactive bands were scanned by Hp Scanjet 5590.

PS19 mice = assay: Efficacy study in PS19 mice (tauopathy model); type: in vivo; settings: IP 15 mg/kg once daily, 8 weeks
Method: PS19 mice at 33 weeks of age were treated with 1015 (IP, 15 mg/kg) or vehicle [Kolliphor HS-physiological saline (20%:80%)] by a once daily dose schedule for 8 weeks (5 injections per week). (A) Body weight changes during the course of treatment were assessed. (B) The level of Wnt specific target neuroD1 in cortex was determined by qPCR. All the values are the average of from 5-7 mice with the SE values indicated by error bars.* P<0.05, * P<0.01 verse Non-Tg treated with vehicle or PS19 mice treated with vehicle.
(A) PS19 mice at 33 weeks of age were treated with 1015 (IP, 15 mg/kg) or vehicle [Kolliphor HS-physiological saline (20%:80%)] by a once daily dose schedule for 8 weeks (5 injections per week). The levels of tau phosphorylation (p-tau) and total tau in cortex were determined by Western blotting with p-tau antibody AT8, p-tau antibody AT180, and tau antibody HT7, respectively. (B) The intensities of p-tau bands were quantified and normalized to the corresponding signal for actin. The results represented in the histograms are shown as the mean±SE, n=5.
PS19 mice at 33 weeks of age were treated with 1015 (IP, 15 mg/kg) or vehicle [Kolliphor HS-physiological saline (20%:80%)] by a once daily dose schedule for 8 weeks (5 injections per week). (A-D) The levels of cytokines IL6, TNFa, TGF1b and IL1b in cortex were determined by qPCR. All the values are the average of from 5-7 mice with the SE values indicated by error bars. * P<0.05, * P<0.01, ** P<0.001.
1015 activates Wnt/β-catenin signaling and prevents body weight loss in PS19 mice: PS19 is a widely used tauopathy model which recapitulates many AD-related phenotypes. […] Therefore, the PS19 mouse model was used for efficacy studies. There was a noticeable drop in weight in all groups after initiation of daily dosing in each group, which is most likely a consequence of the sudden daily manipulation of the mice (FIG. 17 at A).

CC(=O)Nc1ccc(C(=O)Nc2ccccc2N)cc1 [CI-994, 4-(acetylamino)-N-(2-aminophenyl)benzamide, reference compound] was tested, and the “cytosolic free β-catenin level” value (β-catenin) was “increased” and the HA-LRP6 expression (LRP6) was “significantly enhanced”.
With CC1CCCC(C)N1CCNC(=O)c1ccc(C(=O)Nc2ccccc2N)nc1 (stereo not shown) [Compound 1011] the “GSK3β phosphorylation at Ser9” value (GSK3β) was “significantly enhanced”.
In the case of Nc1ccccc1NC(=O)c1ccc(C(=O)NCC2CCN2C2CCCC2)cn1 (stereo not shown) [Compound 1015], the body weight loss (PS19 mice; 5 injections per week) is reported as “significantly prevented”, the “tau phosphorylation in cortex” value (PS19 mice; AT8 and AT180) is reported as “significantly suppresses” and the “neuroD1 expression in brain” value (PS19 mice; cortex, qPCR) is reported as “restored, but not over induced”. The “neuroinflammatory cytokine expression (IL6, TNFa, TGF1b, IL1b)” value (PS19 mice; cortex, qPCR) was “inhibited”.
